Each compound was assayed against T1, Adenosine deaminase (Bos taurus, UniProt P56658) (assay: Compound was tested for the inhibition of adenosine deaminase from calf intestinal mucosa).
T1 sequence (P56658 whole entry): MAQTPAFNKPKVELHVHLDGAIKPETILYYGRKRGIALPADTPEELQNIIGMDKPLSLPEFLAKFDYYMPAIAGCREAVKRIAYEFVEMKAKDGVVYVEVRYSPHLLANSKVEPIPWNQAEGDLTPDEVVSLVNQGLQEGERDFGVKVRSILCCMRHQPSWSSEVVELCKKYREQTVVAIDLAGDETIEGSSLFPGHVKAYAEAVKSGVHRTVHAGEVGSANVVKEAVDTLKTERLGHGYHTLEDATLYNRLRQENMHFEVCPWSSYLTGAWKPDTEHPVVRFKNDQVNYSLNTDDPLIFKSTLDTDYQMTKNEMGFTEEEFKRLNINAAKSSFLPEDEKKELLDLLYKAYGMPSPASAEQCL

| SMILES | Ki [nM] |
| --- | --- |
| CCCCCC[C@H]([C@@H](O)CO)n1cnc2c(N)nccc21 | 497 |
| CCCCCC[C@H]([C@@H](O)CF)n1cnc2c(N)nccc21 | 4.7 |
| CCCCCC[C@H]([C@H](C)O)n1cnc2c(N)nccc21 | 6.2 |
